Results published in ChEMBL document CHEMBL1201862, “PubChem BioAssay data set” (2004).
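A five-concentration, 48-hour dose response in 96-well plates underlies each endpoint, interpolated linearly between surrounding concentrations. GI50 marks 50% less growth.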 Activity calls are given as the source filed them. Cut-off read from the data, not from the text of the source: active = GI50 up to about 1.1 µM and inactive = higher.

What was measured:
Experiment in all cases: NCI tumour cell line growth inhibition, 48 h
SK-OV-3 = test system: SK-OV-3
DLD-1 = test system: DLD-1
HT-29 = test system: HT-29
UACC-62 = test system: UACC-62
K562 = test system: K562
NCI-H460 = test system: NCI-H460
UO-31 = test system: UO-31
OVCAR-8 = test system: OVCAR-8
DMS-114 = test system: DMS-114
HL-60 = test system: HL-60
SN12C = test system: SN12C
SF-268 = test system: SF-268
SK-MEL-5 = test system: SK-MEL-5
HCT-15 = test system: HCT-15
TK-10 = test system: TK-10
NCI-H522 = test system: NCI-H522
NCI-H226 = test system: NCI-H226
HOP-18 = test system: HOP-18
CCRF-CEM = test system: CCRF-CEM
SNB-75 = test system: SNB-75
M19-MEL = test system: M19-MEL
SNB-19 = test system: SNB-19
Malme-3M = test system: Malme-3M
A549 = test system: A549
XF498 = test system: XF498
786-0 = test system: 786-0
KM12 = test system: KM12
ACHN = test system: ACHN
OVCAR-4 = test system: OVCAR-4
U-251 = test system: U-251
LXFL 529 = test system: LXFL 529
M14 = test system: M14
LOX IMVI = test system: LOX IMVI
HCC 2998 = test system: HCC 2998
MOLT-4 = test system: MOLT-4
SK-MEL-28 = test system: SK-MEL-28
RXF 393 = test system: RXF 393
SF-539 = test system: SF-539
HCT-116 = test system: HCT-116
OVCAR-3 = test system: OVCAR-3
SK-MEL-2 = test system: SK-MEL-2
SNB-78 = test system: SNB-78
SF-295 = test system: SF-295
UACC-257 = test system: UACC-257
SR = test system: SR
RPMI-8226 = test system: RPMI-8226
SW-620 = test system: SW-620
COLO 205 = test system: COLO 205
HOP-62 = test system: HOP-62
EKVX = test system: EKVX
NCI-H23 = test system: NCI-H23
IGROV-1 = test system: IGROV-1
KM-20L2 = test system: KM-20L2
DMS-273 = test system: DMS-273
CAKI-1 = test system: CAKI-1
A498 = test system: A498
HOP-92 = test system: HOP-92
OVCAR-5 = test system: OVCAR-5

Measured: GI50

O=C(NN1C(=O)C(Cl)C1c1ccccc1Cl)c1ccccc1O (stereo unspecified)
inactive: SK-OV-3 > 100 µM | DLD-1 > 100 µM | HT-29 > 100 µM | UACC-62 > 100 µM | K562 > 100 µM | NCI-H460 > 100 µM | UO-31 > 100 µM | OVCAR-8 > 100 µM | DMS-114 70 µM | HL-60 > 100 µM | SN12C > 100 µM | SF-268 71.1 µM | SK-MEL-5 > 100 µM | TK-10 > 100 µM | NCI-H522 > 100 µM | NCI-H226 > 100 µM | HOP-18 > 100 µM | CCRF-CEM > 100 µM | SNB-75 > 100 µM | M19-MEL > 100 µM | SNB-19 > 100 µM | Malme-3M > 100 µM | A549 > 100 µM | XF498 32.7 µM | 786-0 > 100 µM | KM12 > 100 µM | ACHN > 100 µM | OVCAR-4 > 100 µM | U-251 > 100 µM | LXFL 529 > 100 µM | M14 > 100 µM | LOX IMVI > 100 µM | HCC 2998 > 100 µM | MOLT-4 > 100 µM | SK-MEL-28 > 100 µM | RXF 393 15.9 µM | SF-539 > 100 µM | HCT-116 > 100 µM | OVCAR-3 > 100 µM | SK-MEL-2 > 100 µM | SNB-78 > 100 µM | SF-295 > 100 µM | UACC-257 > 100 µM
> 100 µM: HCT-15

Oc1cccc2c1NC1=C(CCC/C1=C\c1ccccc1)C2
inactive: SR 50.1 µM | SK-OV-3 > 100 µM | RPMI-8226 52 µM | SW-620 > 100 µM | HT-29 49.8 µM | K562 59.6 µM | NCI-H460 57.1 µM | UO-31 51.2 µM | COLO 205 > 100 µM | OVCAR-8 > 100 µM | DMS-114 67.8 µM | HL-60 40.1 µM | HOP-62 > 100 µM | SN12C > 10 µM | SF-268 > 100 µM | EKVX > 100 µM | SK-MEL-5 > 100 µM | NCI-H23 58.2 µM | TK-10 > 100 µM | IGROV-1 > 100 µM | NCI-H522 11 µM | NCI-H226 > 100 µM | CCRF-CEM 37.3 µM | KM-20L2 52.6 µM | M19-MEL 55.8 µM | SNB-19 > 100 µM | Malme-3M > 100 µM | A549 > 100 µM | XF498 57.1 µM | 786-0 > 100 µM | DMS-273 66.7 µM | KM12 > 100 µM | ACHN 53.5 µM | U-251 69 µM | LXFL 529 89.5 µM | M14 33.5 µM | LOX IMVI 73.3 µM | HCC 2998 49.3 µM | MOLT-4 34.8 µM | SK-MEL-28 > 100 µM | SF-539 20.6 µM | HCT-116 82.6 µM | OVCAR-3 > 100 µM | SF-295 71.8 µM | UACC-257 57.9 µM
43.4 µM: HCT-15

CSCC(COC(C)=O)(CSC)c1ccncc1
inactive: SR > 100 µM | SK-OV-3 > 100 µM | RPMI-8226 > 100 µM | SW-620 > 100 µM | HT-29 > 100 µM | UACC-62 > 100 µM | K562 > 100 µM | NCI-H460 > 100 µM | UO-31 > 100 µM | CAKI-1 > 100 µM | COLO 205 > 100 µM | OVCAR-8 > 100 µM | DMS-114 > 100 µM | HL-60 > 100 µM | HOP-62 > 100 µM | SN12C > 100 µM | SF-268 > 100 µM | A498 > 100 µM | EKVX > 100 µM | SK-MEL-5 53.6 µM | NCI-H23 > 100 µM | TK-10 > 100 µM | IGROV-1 > 100 µM | NCI-H522 > 100 µM | CCRF-CEM > 100 µM | KM-20L2 > 100 µM | SNB-75 85.7 µM | M19-MEL > 100 µM | SNB-19 > 100 µM | Malme-3M > 100 µM | A549 > 100 µM | 786-0 > 100 µM | DMS-273 > 100 µM | KM12 > 100 µM | ACHN > 100 µM | OVCAR-4 > 100 µM | U-251 > 100 µM | LXFL 529 > 100 µM | M14 > 100 µM | LOX IMVI > 100 µM | HCC 2998 > 100 µM | MOLT-4 > 100 µM | SK-MEL-28 > 100 µM | RXF 393 > 100 µM | SF-539 > 100 µM | HCT-116 > 100 µM | OVCAR-3 > 100 µM | SK-MEL-2 > 100 µM | SNB-78 > 100 µM | SF-295 > 100 µM | UACC-257 > 100 µM
> 100 µM: HCT-15

C=CC(Br)(CBr)CCC(Br)C(C)(C)Br (stereo unspecified)
16.5 µM: HCT-15
inactive: SR 3.81 µM | SK-OV-3 19.4 µM | DLD-1 17.2 µM | RPMI-8226 2.79 µM | SW-620 13.7 µM | HT-29 13.2 µM | UACC-62 12 µM | K562 17.3 µM | NCI-H460 10.4 µM | UO-31 15.2 µM | CAKI-1 22.8 µM | COLO 205 15 µM | OVCAR-8 15.7 µM | DMS-114 11.6 µM | HOP-62 21 µM | SN12C 15.6 µM | SF-268 17.1 µM | SK-MEL-5 14.5 µM | NCI-H23 15.7 µM | TK-10 16.4 µM | IGROV-1 15.2 µM | NCI-H522 15.8 µM | NCI-H226 18.1 µM | HOP-18 15.5 µM | SNB-75 10.3 µM | M19-MEL 14.3 µM | Malme-3M 16.6 µM | A549 14.6 µM | 786-0 12.9 µM | DMS-273 10.7 µM | KM12 9.14 µM | ACHN 12.7 µM | HOP-92 15.7 µM | OVCAR-4 17.1 µM | U-251 14.2 µM | LXFL 529 14.5 µM | M14 15 µM | LOX IMVI 12.4 µM | MOLT-4 9.51 µM | SK-MEL-28 15.9 µM | RXF 393 14.7 µM | OVCAR-5 18.5 µM | SF-539 15.9 µM | HCT-116 14.5 µM | SK-MEL-2 13.6 µM | SNB-78 5.56 µM | SF-295 4.42 µM | UACC-257 13.9 µM

O=[N+]([O-])C1C2C=CC(C2)[C@H]1c1ccco1 (stereo partly specified)
active: NCI-H23 0.384 µM | HOP-92 0.259 µM
> 100 µM: HCT-15
inactive: SR > 100 µM | SK-OV-3 > 100 µM | DLD-1 > 100 µM | SW-620 > 100 µM | HT-29 2.19 µM | UACC-62 > 100 µM | K562 > 100 µM | NCI-H460 > 100 µM | UO-31 > 100 µM | CAKI-1 > 100 µM | COLO 205 > 100 µM | OVCAR-8 > 100 µM | DMS-114 > 100 µM | HL-60 > 100 µM | HOP-62 > 100 µM | SN12C > 100 µM | SF-268 > 100 µM | A498 > 100 µM | EKVX > 100 µM | SK-MEL-5 > 100 µM | TK-10 > 100 µM | IGROV-1 > 100 µM | NCI-H522 > 100 µM | NCI-H226 > 100 µM | CCRF-CEM > 100 µM | KM-20L2 > 100 µM | SNB-75 > 100 µM | M19-MEL > 100 µM | SNB-19 > 100 µM | Malme-3M > 100 µM | A549 > 100 µM | XF498 > 100 µM | 786-0 > 100 µM | DMS-273 > 100 µM | KM12 > 100 µM | ACHN > 100 µM | OVCAR-4 > 100 µM | U-251 > 100 µM | LXFL 529 > 100 µM | M14 > 100 µM | LOX IMVI > 100 µM | HCC 2998 > 100 µM | MOLT-4 > 100 µM | RXF 393 > 100 µM | OVCAR-5 > 100 µM | SF-539 > 100 µM | HCT-116 > 100 µM | OVCAR-3 > 100 µM | SK-MEL-2 > 100 µM | SNB-78 > 100 µM | SF-295 > 100 µM | UACC-257 > 100 µM
